Test system: keloid scar
Experiment: Intralesional injection of the pharmaceutical composition into keloid scars of patients
Type: in vivo, human
Settings: injected into the keloid scar; general statement, 'often'
Description: A pharmaceutical composition was prepared by mixing 1.0 mg of high molecular weight hyaluronic acid (0.1 cc of HYALGAN®, sodium hyaluronate) with 7.5 units of hyaluronidase (HYLENEX® recombinant human hyaluronidase), which was injected into the keloid scar. […] Erythema and tenderness of the keloid scar was also resolved.
A pharmaceutical composition was prepared as in Example 1, and injected into the keloid scar.
The patient also reported a sharp, piercing pain from the keloid scar. A pharmaceutical composition was prepared as in Example 1, and injected into the keloid scar.
A fourth patient had two keloid scars, one on each earlobe. A pharmaceutical composition was prepared as in Example 1, and injected into each of the keloid scars. […] Some itching was reported by the patient.
All four patients responded to the treatment. Overall, there was significant reduction in keloid scar size, with an average of approximately a 22% reduction in length, a 37% reduction in width, and a 45% reduction in height. Even more striking was great reduction in density and hardness of the keloid scar tissue, leaving a soft pliable skin sack after treatment.
Only a few mild adverse reactions were reported. Two patients reported very mild itching from the keloid scars. Some stinging from the injection was also reported. No significant pain or swelling was reported.

## low molecular weight hyaluronic acid
  shrinkage of keloid scar volume: ≥ 50%
